Among the data in PubChem BioAssay AID330 (DTP/NCI, 2004) are T/C values, retold here.

The test deals with P388 leukemia ip, CD2F1 mice, survival T/C. Briefly: NCI In Vivo Anticancer Drug Screen. Data for tumor model P388 Leukemia (intraperitoneal) in CD2F1 (CDF1) mice. Conditions: endpoint: median survival time, higher = longer survival. In a few lines:
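Mice carrying the transplanted tumor received test compound or vehicle. Survival was recorded in each group, and the value is the treated-group measurement divided by that of the vehicle-treated control group.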

[1] abbreviates: dose: 25.0 mg/kg/injection, schedule: Q01DX009 (ip), vehicle: saline with Tween-80.
[2] abbreviates: dose: 50.0 mg/kg/injection, schedule: Q01DX005 (ip), vehicle: saline with Tween-80.
Where [3] appears, read: dose: 100.0 mg/kg/injection, schedule: Q01DX005 (ip), vehicle: saline with Tween-80.
Setting [4] is: dose: 200.0 mg/kg/injection, schedule: Q01DX005 (ip), vehicle: saline with Tween-80.

“And” between values parts separate entries of the source, which are not always exact repeats. Equal values may be shown once. Toxic doses and inconclusive results are not listed.

As for `CC[C@]1(O)C[C@H]2CN(CCc3c([nH]c4ccccc34)[C@@](C(=O)OC)(c3cc4c(cc3OC)N(C)[C@H]3[C@@](O)(C(=O)OC)[C@H](OC(C)=O)[C@]5(CC)C=CCN6CC[C@]43[C@@H]65)C2)C1`, the T/C reads like this: (dose: 0.03 mg/kg/injection, schedule: Q04DX003 (ip), vehicle: water) 100 % of control; (dose: 0.13 mg/kg/injection, schedule: Q01DX005 (ip), vehicle: saline) 172 % of control; (dose: 0.13 mg/kg/injection, schedule: Q01DX009 (ip), vehicle: saline) 162 % of control; (dose: 0.16 mg/kg/injection, schedule: Q01DX009 (ip), vehicle: saline) 160 % of control; (dose: 0.25 mg/kg/injection, schedule: Q01DX005 (ip), vehicle: saline) 202 % of control; (dose: 0.38 mg/kg/injection, schedule: Q04DX003 (ip), vehicle: saline) 162 % of control. The T/C by setting is: (dose: 0.4 mg/kg/injection, schedule: Q04DX003 (ip), vehicle: water) 160 % of control; (dose: 0.45 mg/kg/injection, schedule: Q01DX009 (ip), vehicle: saline) 168 % of control; (dose: 0.5 mg/kg/injection, schedule: Q01DX001 (ip), vehicle: saline) 150 % of control; (dose: 0.5 mg/kg/injection, schedule: Q01DX005 (ip), vehicle: saline) 163 % of control and 177 % of control; (dose: 0.5 mg/kg/injection, schedule: Q04DX003 (ip), vehicle: saline) 169 % of control; (dose: 0.52 mg/kg/injection, schedule: Q04DX002 (ip), vehicle: saline) 157 % of control. Further, the T/C (dose: 0.63 mg/kg/injection, schedule: Q04DX003 (ip), vehicle: saline) was 157 % of control and 248 % of control; the T/C (dose: 0.64 mg/kg/injection, schedule: Q04DX002 (ip), vehicle: saline) was 179 % of control; the T/C (dose: 0.65 mg/kg/injection, schedule: Q04DX003 (ip), vehicle: saline) is 173 % of control; the T/C (dose: 0.67 mg/kg/injection, schedule: Q04DX003 (ip), vehicle: saline) was 185 % of control; the T/C (dose: 0.75 mg/kg/injection, schedule: Q01DX009 (ip), vehicle: saline) is 91 % of control; the T/C (dose: 0.75 mg/kg/injection, schedule: Q04DX003 (ip), vehicle: saline) is 198 % of control. For the same compound, the T/C runs as follows: (dose: 0.8 mg/kg/injection, schedule: Q01DX009 (ip), vehicle: saline) 90 % of control; (dose: 0.8 mg/kg/injection, schedule: Q04DX003 (ip), vehicle: water) 173 % of control and 185 % of control; (dose: 0.86 mg/kg/injection, schedule: Q04DX002 (ip), vehicle: saline) 196 % of control; (dose: 1.0 mg/kg/injection, schedule: Q01DX001 (ip), vehicle: Klucel (hydroxypropylcellulose) (HPC)) 163 % of control; (dose: 1.0 mg/kg/injection, schedule: Q01DX001 (ip), vehicle: saline) 162 % of control; (dose: 1.0 mg/kg/injection, schedule: Q04DX003 (ip), vehicle: water) 150 % of control. The T/C is, setting by setting: (dose: 1.08 mg/kg/injection, schedule: Q04DX002 (ip), vehicle: saline) 199 % of control; (dose: 1.08 mg/kg/injection, schedule: Q04DX003 (ip), vehicle: saline) 186 % of control and 201 % of control; (dose: 1.2 mg/kg/injection, schedule: Q04DX003 (ip), vehicle: saline) 189 % of control; (dose: 1.44 mg/kg/injection, schedule: Q04DX002 (ip), vehicle: saline) 197 % of control and 198 % of control; (dose: 1.44 mg/kg/injection, schedule: Q04DX003 (ip), vehicle: saline) 97 % of control; (dose: 1.6 mg/kg/injection, schedule: Q04DX003 (ip), vehicle: water) 228 % of control and 229 % of control and 234 % of control. Further, the T/C is, setting by setting: (dose: 1.8 mg/kg/injection, schedule: Q04DX002 (ip), vehicle: saline) 218 % of control; (dose: 1.8 mg/kg/injection, schedule: Q04DX003 (ip), vehicle: saline) 213 % of control and 220 % of control; (dose: 2.0 mg/kg/injection, schedule: Q01DX001 (ip), vehicle: clinical formulation) 150 % of control; (dose: 2.0 mg/kg/injection, schedule: Q04DX003 (oral), vehicle: water) 110 % of control; (dose: 2.4 mg/kg/injection, schedule: Q04DX002 (ip), vehicle: saline) 376 % of control; (dose: 3.2 mg/kg/injection, schedule: Q04DX003 (ip), vehicle: water) 100 % of control. Also, the T/C is 240 % of control (dose: 3.33 mg/kg/injection, schedule: Q04DX003 (ip), vehicle: saline); 216 % of control (dose: 4.0 mg/kg/injection, schedule: Q01DX001 (ip), vehicle: Klucel (hydroxypropylcellulose) (HPC)); 171 % of control and 177 % of control (dose: 4.0 mg/kg/injection, schedule: Q01DX001 (ip), vehicle: clinical formulation); 162 % of control and 200 % of control (dose: 4.0 mg/kg/injection, schedule: Q01DX001 (ip), vehicle: saline); 177 % of control (dose: 8.0 mg/kg/injection, schedule: Q01DX001 (ip), vehicle: Klucel (hydroxypropylcellulose) (HPC)); 190 % of control (dose: 8.0 mg/kg/injection, schedule: Q01DX001 (ip), vehicle: clinical formulation). Also, the T/C (dose: 125.0 micrograms/kg/injection, schedule: Q01DX009 (ip), vehicle: water) was 172 % of control; the T/C (dose: 250.0 micrograms/kg/injection, schedule: Q01DX009 (ip), vehicle: water) was 164 % of control; the T/C (dose: 500.0 micrograms/kg/injection, schedule: Q01DX009 (ip), vehicle: water) was 92 % of control.
As to `CC(=Nc1ccccc1)C1=C(O)C(Cc2ccccc2)NC1=O` (configuration not stated), under setting [1], the T/C was 106 % of control.
As to `CCOC(=O)c1c(C)[nH]c(-c2ccccc2)c1NS(=O)(=O)c1ccc(NC(C)=O)cc1`, the T/C reads like this: (dose: 60.0 mg/kg/injection, schedule: Q01DX005 (ip), vehicle: saline with Tween-80) 106 % of control; (dose: 120.0 mg/kg/injection, schedule: Q01DX005 (ip), vehicle: saline with Tween-80) 93 % of control; (dose: 240.0 mg/kg/injection, schedule: Q01DX005 (ip), vehicle: saline with Tween-80) 99 % of control.
As for `C1CCN(CCCCN2CCCCC2)CC1`, the T/C was 93 % of control (dose: 25.0 mg/kg/injection, schedule: Q01DX009 (ip), vehicle: saline) and 88 % of control (dose: 50.0 mg/kg/injection, schedule: Q01DX009 (ip), vehicle: saline).
In the case of `CC[CH2][Pb]([CH2]CC)([CH2]CC)[O]C(=O)C1CCCCC1`, the T/C (dose: 1.25 mg/kg/injection, schedule: Q01DX009 (ip), vehicle: saline with Tween-80) is 105 % of control and 97 % of control; the T/C (dose: 2.5 mg/kg/injection, schedule: Q01DX009 (ip), vehicle: saline with Tween-80) was 111 % of control and 122 % of control; the T/C (dose: 5.0 mg/kg/injection, schedule: Q01DX009 (ip), vehicle: saline with Tween-80) is 122 % of control; the T/C (dose: 10.0 mg/kg/injection, schedule: Q01DX009 (ip), vehicle: saline with Tween-80) is 114 % of control.
Take `CC1Cc2c([nH]c3ccc(Cl)cc23)CN1` (configuration not stated): the T/C reads like this: (dose: 3.12 mg/kg/injection, schedule: Q01DX009 (ip), vehicle: saline with Tween-80) 106 % of control; (dose: 6.25 mg/kg/injection, schedule: Q01DX009 (ip), vehicle: saline with Tween-80) 100 % of control; (dose: 12.5 mg/kg/injection, schedule: Q01DX009 (ip), vehicle: saline with Tween-80) 101 % of control; under setting [1], 101 % of control.
As to `CCN1CC2(COC)C(O)CC(OC)C34C5CC6(O)C(O)C5C(O)(C(O)C6OC)C(C(OC)C23)C14` (configuration not stated), the T/C (dose: 25.0 mg/kg/injection, schedule: Q01DX005 (ip), vehicle: saline) was 114 % of control; the T/C (dose: 50.0 mg/kg/injection, schedule: Q01DX005 (ip), vehicle: saline) is 102 % of control; the T/C (dose: 100.0 mg/kg/injection, schedule: Q01DX005 (ip), vehicle: saline) is 107 % of control; the T/C (dose: 200.0 mg/kg/injection, schedule: Q01DX005 (ip), vehicle: saline) was 104 % of control.
On to `COC(=O)/C=C(/Nc1c(Cl)sc2ccccc2c1=O)C(=O)OC`, for which the T/C was 97 % of control under setting [2], 97 % of control under setting [3] and 95 % of control under setting [4].
As for `OC(c1ccc(F)cc1)(C1CC1)C1CC1`, the T/C (dose: 100.0 mg/kg/injection, schedule: Q01DX001 (ip), vehicle: saline + alcohol) was 98 % of control; the T/C (dose: 200.0 mg/kg/injection, schedule: Q01DX001 (ip), vehicle: saline + alcohol) was 99 % of control; the T/C (dose: 400.0 mg/kg/injection, schedule: Q01DX001 (ip), vehicle: saline + alcohol) was 101 % of control.
For the compound `CCOC(=O)c1c[nH]c2c(OC)ccc(OC)c2c1=O`, the T/C runs as follows: under setting [2], 99 % of control; under setting [3], 100 % of control; under setting [4], 100 % of control.
